According to publication PMC9290008 (ACS Medicinal Chemistry Letters, 2022):

Test: GSH incorporation experiments
Type: in vitro ADME, human
Details: 10 μM compound, GSH 5 mM, 37 °C, 30 min; for % GSH + HLM: presence of HLM; for %GSH − HLM: absence of HLM

Structure (SMILES)	% GSH + HLM [%]	%GSH − HLM [%]
Clc1ncc(Cl)c(-n2ccc3ncccc32)n1 [Compound 1]	96.0	
Clc1nccc(-n2ccc3ncccc32)n1 [Compound 8]	53.5	0.1
Clc1ncc(Cl)c(-n2ccc3ncncc32)n1 [Compound 20]	99.9	2.5
Clc1ncc(Cl)c(-c2c[nH]c3ncncc23)n1 [Compound 21]	16.1	0
N#Cc1ccc(Cl)nc1-n1ccc2ncncc21 [Compound 23]	49.9	2.8
